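Step 1: Grow cells in 96-well plates. Step 2: Expose to compound for 48 hours at 5 concentrations. Step 3: Interpolate endpoints linearly; if unreached, use highest concentration. At the GI50, growth is halved. TGI: total growth inhibition.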
What follows are compounds tested on K-562 leukemia (assay: growth of human tumour cells (NCI), 48 h).
In the case of `C=C1C(O)C2C(=C(C)C13CC3)C(=O)C(C)(C)C2OC` (stereo not given), the GI50 is reported as 42.9 µM and the TGI is reported as over 100 µM. `O=C(Nc1ccc(Cl)cc1)Nc1nccs1` showed a GI50 of 0.5 µM and a TGI of over 100 µM. `CS(=O)(=O)CS(=O)(=O)OCCCl` was tested, and the TGI was 3120 µM. Work on `CC(C)(C)c1cc(C(=O)/C=C/c2ccc(C(=O)O)cc2)cc(C(C)(C)C)c1` yielded a TGI of over 100 µM. In the case of `Cc1noc2c1-c1ccccc1C(c1ccc(Cl)cc1)=N[C@H]2CC(N)=O`, the GI50 is reported as 4.67 µM and the TGI is reported as over 100 µM. `Cc1sc2c(c1C)C(c1ccc(Cl)cc1)=N[C@@H](CC(=O)Nc1ccc(OCCOCCOCCOCCNc3cccc4c3C(=O)N(C3CCC(=O)NC3=O)C4=O)cc1)c1nnc(C)n1-2` (stereo not given in full) gave a GI50 of 0.293 µM and a TGI of over 100 µM. Compound `CCOC(=O)C1=C(N)Oc2c(sc3c(C)cccc23)C1c1ccc(F)cc1` (stereo not given) has a GI50 of 0.375 µM and a TGI of over 42.7 µM.

Each compound was assayed on NCI/ADR-RES ovarian (assay: growth of human tumour cells (NCI), 48 h).
`C=C1C(O)C2C(=C(C)C13CC3)C(=O)C(C)(C)C2OC` (stereo not given) showed a GI50 of over 100 µM and a TGI of over 100 µM. `O=C(Nc1ccc(Cl)cc1)Nc1nccs1` gave a GI50 of 0.575 µM and a TGI of 30.1 µM. With `CS(=O)(=O)CS(=O)(=O)OCCCl` the TGI was 1960 µM. `CC(C)(C)c1cc(C(=O)/C=C/c2ccc(C(=O)O)cc2)cc(C(C)(C)C)c1` gave a TGI of 6.8 µM. With `Cc1noc2c1-c1ccccc1C(c1ccc(Cl)cc1)=N[C@H]2CC(N)=O` the GI50 was 2.74 µM and the TGI was over 100 µM. With `Cc1sc2c(c1C)C(c1ccc(Cl)cc1)=N[C@@H](CC(=O)Nc1ccc(OCCOCCOCCOCCNc3cccc4c3C(=O)N(C3CCC(=O)NC3=O)C4=O)cc1)c1nnc(C)n1-2` (stereo not given in full) the GI50 was over 52.8 µM and the TGI was over 100 µM. `CCOC(=O)C1=C(N)Oc2c(sc3c(C)cccc23)C1c1ccc(F)cc1` (stereo not given) was tested, and the GI50 was 0.384 µM and the TGI was 14.5 µM.

The compounds below were run on RPMI-8226 leukemia (assay: growth of human tumour cells (NCI), 48 h).
In the case of `C=C1C(O)C2C(=C(C)C13CC3)C(=O)C(C)(C)C2OC` (stereo not given), the GI50 is reported as 41.3 µM and the TGI is reported as over 100 µM. `O=C(Nc1ccc(Cl)cc1)Nc1nccs1` showed a GI50 of 2.63 µM and a TGI of 16.6 µM. With `CS(=O)(=O)CS(=O)(=O)OCCCl` the TGI was 3170 µM. Compound `CC(C)(C)c1cc(C(=O)/C=C/c2ccc(C(=O)O)cc2)cc(C(C)(C)C)c1` has a TGI of 6.06 µM. Work on `Cc1noc2c1-c1ccccc1C(c1ccc(Cl)cc1)=N[C@H]2CC(N)=O` yielded a GI50 of 0.362 µM and a TGI of 10.7 µM. Compound `Cc1sc2c(c1C)C(c1ccc(Cl)cc1)=N[C@@H](CC(=O)Nc1ccc(OCCOCCOCCOCCNc3cccc4c3C(=O)N(C3CCC(=O)NC3=O)C4=O)cc1)c1nnc(C)n1-2` (stereo not given in full) has a GI50 of under 0.0175 µM and a TGI of over 100 µM. Compound `CCOC(=O)C1=C(N)Oc2c(sc3c(C)cccc23)C1c1ccc(F)cc1` (stereo not given) has a GI50 of 0.489 µM and a TGI of 5.38 µM.

The compounds below were run on HCT-15 colon (assay: growth of human tumour cells (NCI), 48 h).
`C=C1C(O)C2C(=C(C)C13CC3)C(=O)C(C)(C)C2OC` (stereo not given) gave a GI50 of over 100 µM and a TGI of over 100 µM. `O=C(Nc1ccc(Cl)cc1)Nc1nccs1` showed a GI50 of 0.46 µM and a TGI of over 100 µM. Work on `CS(=O)(=O)CS(=O)(=O)OCCCl` yielded a TGI of 1090 µM. `CC(C)(C)c1cc(C(=O)/C=C/c2ccc(C(=O)O)cc2)cc(C(C)(C)C)c1` was tested, and the TGI was 4.12 µM. `Cc1noc2c1-c1ccccc1C(c1ccc(Cl)cc1)=N[C@H]2CC(N)=O` was tested, and the GI50 was 2.49 µM and the TGI was over 100 µM. `Cc1sc2c(c1C)C(c1ccc(Cl)cc1)=N[C@@H](CC(=O)Nc1ccc(OCCOCCOCCOCCNc3cccc4c3C(=O)N(C3CCC(=O)NC3=O)C4=O)cc1)c1nnc(C)n1-2` (stereo not given in full) was tested, and the GI50 was 0.394 µM and the TGI was over 100 µM. Work on `CCOC(=O)C1=C(N)Oc2c(sc3c(C)cccc23)C1c1ccc(F)cc1` (stereo not given) yielded a GI50 of 0.415 µM and a TGI of 10.9 µM.

These compounds were tested on NCI-H460 lung (assay: growth of human tumour cells (NCI), 48 h).
For `C=C1C(O)C2C(=C(C)C13CC3)C(=O)C(C)(C)C2OC` (stereo not given), the GI50 was over 100 µM and the TGI was over 100 µM. Compound `O=C(Nc1ccc(Cl)cc1)Nc1nccs1` has a GI50 of 0.487 µM and a TGI of 57.3 µM. `CS(=O)(=O)CS(=O)(=O)OCCCl` gave a TGI of 448 µM. In the case of `CC(C)(C)c1cc(C(=O)/C=C/c2ccc(C(=O)O)cc2)cc(C(C)(C)C)c1`, the TGI is reported as 7.36 µM. Compound `Cc1noc2c1-c1ccccc1C(c1ccc(Cl)cc1)=N[C@H]2CC(N)=O` has a GI50 of 16.7 µM and a TGI of over 100 µM. For `Cc1sc2c(c1C)C(c1ccc(Cl)cc1)=N[C@@H](CC(=O)Nc1ccc(OCCOCCOCCOCCNc3cccc4c3C(=O)N(C3CCC(=O)NC3=O)C4=O)cc1)c1nnc(C)n1-2` (stereo not given in full), the GI50 was 2.13 µM and the TGI was over 100 µM. Compound `CCOC(=O)C1=C(N)Oc2c(sc3c(C)cccc23)C1c1ccc(F)cc1` (stereo not given) has a GI50 of 0.415 µM and a TGI of 11 µM.

The compounds below were run on SK-MEL-2 melanoma (assay: growth of human tumour cells (NCI), 48 h).
`C=C1C(O)C2C(=C(C)C13CC3)C(=O)C(C)(C)C2OC` (stereo not given) showed a GI50 of over 100 µM and a TGI of over 100 µM. For `O=C(Nc1ccc(Cl)cc1)Nc1nccs1`, the GI50 was 0.784 µM and the TGI was 43.3 µM. `CS(=O)(=O)CS(=O)(=O)OCCCl` showed a TGI of 856 µM. Compound `CC(C)(C)c1cc(C(=O)/C=C/c2ccc(C(=O)O)cc2)cc(C(C)(C)C)c1` has a TGI of 12.7 µM. Compound `Cc1noc2c1-c1ccccc1C(c1ccc(Cl)cc1)=N[C@H]2CC(N)=O` has a GI50 of 18.1 µM and a TGI of over 100 µM. `Cc1sc2c(c1C)C(c1ccc(Cl)cc1)=N[C@@H](CC(=O)Nc1ccc(OCCOCCOCCOCCNc3cccc4c3C(=O)N(C3CCC(=O)NC3=O)C4=O)cc1)c1nnc(C)n1-2` (stereo not given in full) was tested, and the GI50 was 0.347 µM and the TGI was over 100 µM. `CCOC(=O)C1=C(N)Oc2c(sc3c(C)cccc23)C1c1ccc(F)cc1` (stereo not given) was tested, and the GI50 was 5.39 µM and the TGI was 24.8 µM.

These compounds were tested on SR leukemia (assay: growth of human tumour cells (NCI), 48 h).
In the case of `C=C1C(O)C2C(=C(C)C13CC3)C(=O)C(C)(C)C2OC` (stereo not given), the GI50 is reported as 38 µM and the TGI is reported as over 100 µM. `O=C(Nc1ccc(Cl)cc1)Nc1nccs1` showed a GI50 of 0.45 µM and a TGI of 62.6 µM. Compound `CS(=O)(=O)CS(=O)(=O)OCCCl` has a TGI of 876 µM. `CC(C)(C)c1cc(C(=O)/C=C/c2ccc(C(=O)O)cc2)cc(C(C)(C)C)c1` was tested, and the TGI was 6.16 µM. Compound `Cc1noc2c1-c1ccccc1C(c1ccc(Cl)cc1)=N[C@H]2CC(N)=O` has a GI50 of 0.976 µM and a TGI of over 70.6 µM. With `Cc1sc2c(c1C)C(c1ccc(Cl)cc1)=N[C@@H](CC(=O)Nc1ccc(OCCOCCOCCOCCNc3cccc4c3C(=O)N(C3CCC(=O)NC3=O)C4=O)cc1)c1nnc(C)n1-2` (stereo not given in full) the GI50 was under 0.0219 µM and the TGI was over 100 µM. `CCOC(=O)C1=C(N)Oc2c(sc3c(C)cccc23)C1c1ccc(F)cc1` (stereo not given) showed a GI50 of 0.47 µM and a TGI of 17.9 µM.

The compounds below were run on CCRF-CEM leukemia (assay: growth of human tumour cells (NCI), 48 h).
Work on `C=C1C(O)C2C(=C(C)C13CC3)C(=O)C(C)(C)C2OC` (stereo not given) yielded a GI50 of 78.3 µM and a TGI of over 100 µM. For `O=C(Nc1ccc(Cl)cc1)Nc1nccs1`, the GI50 was 1.93 µM and the TGI was 62 µM. With `CS(=O)(=O)CS(=O)(=O)OCCCl` the TGI was 687 µM. For `CC(C)(C)c1cc(C(=O)/C=C/c2ccc(C(=O)O)cc2)cc(C(C)(C)C)c1`, the TGI was 9.48 µM. `Cc1noc2c1-c1ccccc1C(c1ccc(Cl)cc1)=N[C@H]2CC(N)=O` showed a GI50 of 14.8 µM and a TGI of over 100 µM. `Cc1sc2c(c1C)C(c1ccc(Cl)cc1)=N[C@@H](CC(=O)Nc1ccc(OCCOCCOCCOCCNc3cccc4c3C(=O)N(C3CCC(=O)NC3=O)C4=O)cc1)c1nnc(C)n1-2` (stereo not given in full) was tested, and the GI50 was under 0.0222 µM and the TGI was over 100 µM. For `CCOC(=O)C1=C(N)Oc2c(sc3c(C)cccc23)C1c1ccc(F)cc1` (stereo not given), the GI50 was 0.559 µM and the TGI was 21.6 µM.

What follows are compounds tested on HOP-92 NSCLC (assay: growth of human tumour cells (NCI), 48 h).
With `C=C1C(O)C2C(=C(C)C13CC3)C(=O)C(C)(C)C2OC` (stereo not given) the GI50 was 24.8 µM and the TGI was over 100 µM. Compound `O=C(Nc1ccc(Cl)cc1)Nc1nccs1` has a GI50 of 2.14 µM and a TGI of 34 µM. `CS(=O)(=O)CS(=O)(=O)OCCCl` was tested, and the TGI was 824 µM. In the case of `CC(C)(C)c1cc(C(=O)/C=C/c2ccc(C(=O)O)cc2)cc(C(C)(C)C)c1`, the TGI is reported as 19.7 µM. In the case of `Cc1noc2c1-c1ccccc1C(c1ccc(Cl)cc1)=N[C@H]2CC(N)=O`, the GI50 is reported as 0.54 µM and the TGI is reported as over 100 µM. For `Cc1sc2c(c1C)C(c1ccc(Cl)cc1)=N[C@@H](CC(=O)Nc1ccc(OCCOCCOCCOCCNc3cccc4c3C(=O)N(C3CCC(=O)NC3=O)C4=O)cc1)c1nnc(C)n1-2` (stereo not given in full), the GI50 was under 0.0125 µM and the TGI was over 51.8 µM. `CCOC(=O)C1=C(N)Oc2c(sc3c(C)cccc23)C1c1ccc(F)cc1` (stereo not given) was tested, and the GI50 was 2.13 µM and the TGI was 13.4 µM.

These compounds were tested on BT-549 breast (assay: growth of human tumour cells (NCI), 48 h).
`C=C1C(O)C2C(=C(C)C13CC3)C(=O)C(C)(C)C2OC` (stereo not given) was tested, and the GI50 was over 100 µM and the TGI was over 100 µM. `O=C(Nc1ccc(Cl)cc1)Nc1nccs1` was tested, and the GI50 was 8.68 µM and the TGI was 57.9 µM. `CS(=O)(=O)CS(=O)(=O)OCCCl` showed a TGI of 181 µM. Work on `CC(C)(C)c1cc(C(=O)/C=C/c2ccc(C(=O)O)cc2)cc(C(C)(C)C)c1` yielded a TGI of 6.61 µM. `Cc1noc2c1-c1ccccc1C(c1ccc(Cl)cc1)=N[C@H]2CC(N)=O` gave a GI50 of 10.9 µM and a TGI of over 100 µM. `Cc1sc2c(c1C)C(c1ccc(Cl)cc1)=N[C@@H](CC(=O)Nc1ccc(OCCOCCOCCOCCNc3cccc4c3C(=O)N(C3CCC(=O)NC3=O)C4=O)cc1)c1nnc(C)n1-2` (stereo not given in full) was tested, and the GI50 was under 0.0228 µM and the TGI was over 100 µM. In the case of `CCOC(=O)C1=C(N)Oc2c(sc3c(C)cccc23)C1c1ccc(F)cc1` (stereo not given), the GI50 is reported as 2.07 µM and the TGI is reported as 12.6 µM.
